Assay results published in patent US20080025960A1, “Detergents with stabilized enzyme systems” (priority 2006, published 2008).

Columns and labels:
choline oxidase [1] = target: T1, choline oxidase (Arthrobacter globiformis, UniProt Q7X2H8); assay: H2O2 in wash liquor with choline oxidase, choline chloride and inhibitor; assay type: biochemical; settings: 2 mM choline chloride, 0.02U enzyme, 0.4 mM AMP inhibitor
T1 sequence (Q7X2H8 1-546): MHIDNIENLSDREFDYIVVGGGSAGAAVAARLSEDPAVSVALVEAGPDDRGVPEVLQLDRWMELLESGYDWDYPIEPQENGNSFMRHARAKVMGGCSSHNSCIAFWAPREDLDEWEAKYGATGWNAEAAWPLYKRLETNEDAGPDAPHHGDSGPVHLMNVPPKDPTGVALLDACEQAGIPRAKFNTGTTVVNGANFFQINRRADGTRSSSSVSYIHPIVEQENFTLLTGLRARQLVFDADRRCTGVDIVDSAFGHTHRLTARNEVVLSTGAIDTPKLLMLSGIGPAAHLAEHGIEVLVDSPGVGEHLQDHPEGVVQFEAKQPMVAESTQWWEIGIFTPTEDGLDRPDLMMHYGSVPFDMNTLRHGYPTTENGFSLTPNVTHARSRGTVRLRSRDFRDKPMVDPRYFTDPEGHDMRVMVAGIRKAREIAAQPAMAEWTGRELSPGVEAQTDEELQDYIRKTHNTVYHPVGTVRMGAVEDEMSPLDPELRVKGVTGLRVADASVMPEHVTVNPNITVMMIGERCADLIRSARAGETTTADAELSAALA
Experimental: (§1) The experiments were conducted as described in Example 1. Choline oxidase produces two moles of H2O2 per mole of choline. The results obtained in these experiments confirmed that choline oxidase was stable in AATCC detergent over 24 hour period tested in presence of choline and inhibitors. […] Upon dilution in wash liquor, detergent containing choline oxidase, choline chloride and an inhibitor (e.g., sodium hydrogen sulfite or 2-amino,2-methyl,1-propanol) produced H2O2 over time, as indicated in Table 5.

choline oxidase [2] = target: T1, choline oxidase; assay: H2O2 in control buffer or AATCC liquid detergent stock with choline oxidase, choline and inhibitor; assay type: biochemical; settings: for H2O2 PPM: 1 M choline
Experimental: In this Example, experiments conducted to assess the stabilization of choline oxidase in the presence of its substrate (i.e., choline) and an inhibitor (i.e., sodium bisulfite and 2-amino,2-methyl,1-propanol) is described. In these experiments, AATCC standard detergent was used.
as §1

glucose oxidase [3] = target: T2, glucose oxidase (Aspergillus niger, UniProt P13006); assay: Premature hydrogen peroxide generation by glucose oxidase in control buffer or AATCC liquid detergent stock (as is) with glucose and inhibitor, dipsticks; assay type: biochemical; settings: 2 M hydroxylamine; detergent containing 1 M glucose and 500 PPM glucose oxidase
T2 construct: purchased Genencor OXYGO L-5000
T2 sequence (P13006 17-605): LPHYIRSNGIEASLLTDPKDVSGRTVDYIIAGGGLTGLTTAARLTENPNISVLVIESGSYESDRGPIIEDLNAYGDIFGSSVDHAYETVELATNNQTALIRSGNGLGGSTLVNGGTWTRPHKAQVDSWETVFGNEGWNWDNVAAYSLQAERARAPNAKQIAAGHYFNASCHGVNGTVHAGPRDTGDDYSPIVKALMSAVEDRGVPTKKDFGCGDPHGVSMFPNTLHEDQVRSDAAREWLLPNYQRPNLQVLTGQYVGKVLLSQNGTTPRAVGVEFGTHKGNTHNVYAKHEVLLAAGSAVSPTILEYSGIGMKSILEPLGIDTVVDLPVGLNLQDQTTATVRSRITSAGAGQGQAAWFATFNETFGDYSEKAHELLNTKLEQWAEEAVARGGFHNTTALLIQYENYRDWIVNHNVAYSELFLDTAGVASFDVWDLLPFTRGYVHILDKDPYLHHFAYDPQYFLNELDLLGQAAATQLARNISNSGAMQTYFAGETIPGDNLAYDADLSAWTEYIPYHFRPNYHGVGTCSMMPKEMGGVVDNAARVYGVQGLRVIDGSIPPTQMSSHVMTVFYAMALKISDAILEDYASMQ

alcohol oxidase [4] = target: T3, alcohol oxidase (Pichia angusta, UniProt P04841); assay: Hydrogen peroxide concentration in control buffer or AATCC liquid detergent stock (as is) with alcohol oxidase, ethanol and inhibitor; assay type: biochemical, Hansunela sp.; settings: for H2O2 PPM: as is, 1 M ethanol, 10U enzyme, 100 mM inhibitor
T3 construct: purchased Sigma
T3 sequence (P04841 whole entry): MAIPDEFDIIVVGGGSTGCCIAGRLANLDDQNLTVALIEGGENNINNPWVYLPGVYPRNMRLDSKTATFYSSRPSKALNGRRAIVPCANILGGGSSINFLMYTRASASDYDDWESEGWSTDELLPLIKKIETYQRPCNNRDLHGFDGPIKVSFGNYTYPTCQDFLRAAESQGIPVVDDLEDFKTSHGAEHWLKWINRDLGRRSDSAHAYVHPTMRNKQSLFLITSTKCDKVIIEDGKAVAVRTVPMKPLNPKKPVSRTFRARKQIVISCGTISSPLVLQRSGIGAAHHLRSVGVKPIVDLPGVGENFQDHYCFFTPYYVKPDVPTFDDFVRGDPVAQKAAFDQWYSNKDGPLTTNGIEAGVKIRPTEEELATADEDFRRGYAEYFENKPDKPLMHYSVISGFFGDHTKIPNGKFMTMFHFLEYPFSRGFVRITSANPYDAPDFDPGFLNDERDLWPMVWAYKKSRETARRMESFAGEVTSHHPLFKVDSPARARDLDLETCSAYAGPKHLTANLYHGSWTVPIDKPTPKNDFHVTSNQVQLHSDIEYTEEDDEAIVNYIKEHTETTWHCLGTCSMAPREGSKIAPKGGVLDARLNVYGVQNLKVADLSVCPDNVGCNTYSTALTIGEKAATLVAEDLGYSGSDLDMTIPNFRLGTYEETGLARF
Experimental: In these experiments, the stability of alcohol oxidase obtained from Hansunela sp., (100 U/ml. 22 U/mg, 13 mg total solid in vial, 7.7 U/mg solid; Sigma) in AATCC liquid detergent was tested. In these experiments, 10 U of the alcohol oxidase were used in liquid detergent stock for each experiment. For testing, 1M ethanol was mixed into the detergent (46 mg ethanol in 990 mg detergent). […] The experiments were conducted as described above in Examples 1 and 3.

glucose oxidase [5] = target: T2, glucose oxidase; assay: Premature hydrogen peroxide generation by glucose oxidase in control buffer or AATCC liquid detergent stock (as is) with glucose and inhibitor, dipsticks; assay type: biochemical; settings: 1 M inhibitor; same methods as Examples 1-4
Text: In this Example, experiments conducted to assess the stabilization of glucose oxidase in the presence of its substrate (i.e., glucose) and an inhibitor (i.e., sodium hydrogen sulfite) is described. In these experiments, AATCC standard detergent (American Association of Textile Chemists and Colorists Heavy Duty Liquid detergent version 2003 without brightener; key components include linear alkane sulfonate, alcohol ethoxylate, propanediol, citric acid, fatty acid, castic soda and water; purchased from TestFabrics) was used.
In these experiments, 100 mM Tris pH 8.3, with 0.005% TWEEN®-100 surfactant used as a positive control. […] Three two-ml tubes were weighed with 0.990 g of AATCC detergent (lot # 01282004) and another three tubes with 0.990 g of control buffer. Then, 90 mg (500 mM) of glucose substrate were added to all of the tubes. Next, 100, 50, and 10 mM sodium hydrogen sulfite (MW 106.1) were added to each tube respectively, including the control buffer and AATCC detergent control. All of the tubes were placed on a rotary plate for an hour to allow good mixing and solubilization of glucose into the detergent. Then, 500 PPM (0.5 mg, 14.88 ul) glucose oxidase (OXYGO™ L-5000, 5379 U/ml; 33.6 mg/ml; Genencor) was added to six 2-ml tubes (three with glucose/bisulfite containing control buffers and three with glucose/bisulfite containing AATCC detergent). All of the tubes were then set on the rotary plate (60 rpm) at room temperature. Hydrogen peroxide production was measured using dipsticks (peroxidase/ABTS—Baker Testrips;Baker) at various times—t=0+minutes, 12 minutes, and 30 minutes. The tube containing 100 mM bisulfite with glucose, glucose oxidase in liquid detergent was further monitored for premature generation of hydrogen peroxide further over a period of time starting at 1 hr, 12 hr, 7 days, 12 days and up to 21 days.
In these experiments, 100 mM Tris pH 8.3, with 0.005% TWEEN®-100 surfactant was used as a positive control. […] Three two-ml tubes were weighed with 0.990 g of AATCC detergent (lot # 01282004) and another three tubes with 0.990 g of control buffer.
Three two-ml tubes containing 0.990 g of AATCC detergent (lot # 01282004) and another three tubes with 0.990 g of control buffer were weighed. Then, 90 mg (500 mM) glucose substrate was added to each tube. Then, 100, 50, and 10 mM sodium metabisulfite were added to each tube respectively (i.e., both control buffer and AATCC detergent-containing tubes). All of the tubes were placed on a rotary plate for an hour to allow good mixing and solubilization of glucose into the detergent. Next, 500 PPM (0.5 mg, 14.88 ul) glucose oxidase (OXYGO™ L-5000, 5379 U/ml; 33.6 mg/ml; Genencor) was added to six 2-ml tubes (three with glucose/metabisulfite containing control buffers and three with glucose/metabisulfite containing AATCC detergent). All of the tubes were then set on the rotary plate (60 rpm) at room temperature. H2O2 production was measured using dipsticks (peroxidase/ABTS), as described in Examples 1 and 2, for t=0+ minutes, 12 minutes, and 30 minutes. The tube containing 100 mM bisulfite with glucose, glucose oxidase in liquid detergent was further monitored for premature generation of hydrogen peroxide further over a period of time starting at 1 hr, 12 hr, 7 days, 12 days and up to 21 days.

alcohol oxidase [6] = target: T3, alcohol oxidase; assay: Hydrogen peroxide concentration in wash liquor with alcohol oxidase, ethanol and inhibitor; assay type: biochemical, Hansunela sp.; settings: 2 mM ethanol, 0.02U enzyme, 0.2 mM inhibitor
Experimental: The stability and activity of the alcohol oxidase enzyme (described in Example 5) in AATCC liquid detergent (Sigma, 100 U/ml. 22 U/mg, 13 mg total solid in vial, 7.7 U/mg solid) was tested upon dilution into wash liquor. In these experiments, 10 U of alcohol oxidase were used in liquid detergent stock for each experiment. In addition, 1M ethanol (substrate) was mixed in detergent (46 mg ethanol in 990 mg detergent). […] In these experiments, 10 ul of final detergent mix or control mix were added to 5 ml of wash liquor. The same methods as described in Examples 2 and 4 were used in these experiments.

Structure (SMILES): CC(C)(N)CO [AMP, 2-amino,2-methyl,1-propanol]
- H2O2 PPM (choline oxidase [1]; AATCC Detergent, T = 0+): 1 PPM
- H2O2 PPM (choline oxidase [1]; AATCC Detergent, T = 12 min): 3 PPM
- H2O2 PPM (choline oxidase [1]; AATCC Detergent, T = 30 min): 3 PPM
- H2O2 PPM (choline oxidase [1]; AATCC Detergent, T = 60 min): 10 PPM
- H2O2 PPM (choline oxidase [1]; Control Buffer, T = 0+): 1 PPM
- H2O2 PPM (choline oxidase [1]; Control Buffer, T = 12 min): 3 PPM
- H2O2 PPM (choline oxidase [1]; Control Buffer, T = 30 min): 3 PPM
- H2O2 PPM (choline oxidase [1]; Control Buffer, T = 60 min): 10 PPM
- H2O2 PPM (choline oxidase [2]; AATCC Detergent, T = 0+, 1U enzyme, 100 mM AMP inhibitor): 0 PPM
- H2O2 PPM (choline oxidase [2]; AATCC Detergent, T = 12 min, 1U enzyme, 100 mM AMP inhibitor): 1 PPM
- H2O2 PPM (choline oxidase [2]; AATCC Detergent, T = 12 min, 1U or 10U enzyme, 200 mM AMP (pH ~9.3)): 0 PPM
- premature regeneration of H2O2 in detergent (choline oxidase [2]; AMP used at 200 mM): stops premature regeneration of H2O2
- H2O2 PPM (choline oxidase [2]; Control Buffer, T = 0+, 1U enzyme, 100 mM AMP inhibitor): 0 PPM
- H2O2 PPM (choline oxidase [2]; Control Buffer, T = 12 min, 1U enzyme, 100 mM AMP inhibitor): 1 PPM
- H2O2 PPM (choline oxidase [2]; Control Buffer, T = 12 min, 1U or 10U enzyme, 200 mM AMP (pH ~9.3)): 0 PPM
- character of choline oxidase inhibition (choline oxidase [2]; sodium hydrogen sulfite at 100 mM concentration tested): reversible inhibitor

Structure (SMILES): NO [hydroxylamine]
- stabilization of premature hydrogen peroxide generation (glucose oxidase [3]): can stabilize premature hydrogen peroxide generation

Structure (SMILES): O=S(O)(O)=S [sodium thiosulfate]
- character of alcohol oxidase inhibition (alcohol oxidase [4]; 100 mM concentration tested): week inhibitor
- H2O2 PPM (alcohol oxidase [4]; AATCC Detergent, T = 0+): 3 PPM
- H2O2 PPM (alcohol oxidase [4]; AATCC Detergent, T = 120 min): (>10--thiosulfate) PPM
- H2O2 PPM (alcohol oxidase [4]; Control Buffer, T = 0+): ˜10 PPM
- H2O2 PPM (alcohol oxidase [4]; Control Buffer, T = 120 min): 0 PPM
- glucose oxidase inhibition (glucose oxidase [5]): small degree of glucose oxidase inhibition
- H2O2 PPM (alcohol oxidase [6]; AATCC Detergent, T = 0+): 0 PPM
- H2O2 PPM (alcohol oxidase [6]; AATCC Detergent, T = 30 min): 0 PPM
- H2O2 PPM (alcohol oxidase [6]; AATCC Detergent, T = 120 min): >3 (thiosulfate) PPM
- H2O2 PPM (alcohol oxidase [6]; Control Buffer, T = 0+): 0 PPM
- H2O2 PPM (alcohol oxidase [6]; Control Buffer, T = 30 min): 0 PPM

Structure (SMILES): [F-].[Na+] [sodium fluoride]
- glucose oxidase inhibition (glucose oxidase [5]): small degree of glucose oxidase inhibition
